Test results: US20080221134A1, “8-ALKYNYLXANTHINES AND DERIVATIVES” (priority 2006, published 2008)

Experiments:
[1] = target: T1, A2A adenosine receptors from rat striatum (Rattus norvegicus, UniProt P30543); test: Sodium chloride-shift experiment; type: binding; details: for Sodium Chloride-Shift Ki (+NaCl)/Ki (−NaCl): ratio
T1 construct: A2A adenosine receptors from rat striatum; from tissue; host or cells: rat striatum
Method: The compounds were tested in a sodium chloride-shift experiment of whether they are functionally coupled to A2A adenosine receptors from rat striatum. […] The presence of a relatively high concentration of sodium chloride should not influence the affinity of the antagonists. However, the affinity of A2A AR agonists should be attenuated and therefore lead to an elevated IC50-value. […] This confirms the A2A-antagonistic function of the compounds. (Gao et al, Biochem. Pharmacol., 2000, 60, 669, herein incorporated by reference).

[2] = system: CGS-21680 induced catalepsy; test: Acute CGS-21680 induced catalepsy test; type: in vivo, rat; details: vs only CGS-21680-treated animals
Method: (§1) Animals were administered with Reserpine or CGS-21680 according to methods known to the skilled person in the art. These models and procedures are e.g. described by Ferré S. et al., Neurosci. Let., 1991, 130, 162; Ferré S. et al., Neuroscience, 1992, 51, 501; Kafka S. H. et al., Eur. J. Pharmacol., 1996, 295, 147; Rimondini R. et al., Neuropsychopharmacology, 1997, 17, 82 and are herein incorporated by reference. In the acute CGS-21680 induced catalepsy model (CGS model) the test compounds (TC, compounds according to the present invention) and CGS-21680 (i.p. 2 mg/kg) were administered 60 minutes before the start of the catalepsy bar measurement and behavioural testing described below (see also FIG. 1). In the acute Reserpine induced catalepsy model (RES model Resperine (subcutaneously, 3 mg/kg) was injected 24 h prior to the test compound application. Catalepsy bar measurement took place 60 minutes after test compound application (see FIG. 1). Test compounds were administered i.p. in DMSO in following doses (mg/kg): 0.1, 0.3, 1, 3, 10.
(§2) Dimethylsulfoxide (DMSO) was used as vehicle for the test compounds and Reserpine. Reserpine was dissolved in DMSO in a concentration of 3 mg/ml. A 10% (w/v) Cyclodextrin solution was used as vehicle for CGS-21680. CGS 21680 was dissolved in 10% (w/v) Cyclodextrine in a concentration of 2 mg/ml.
Caffeine was used as a reference compound in the CGS-21680 induced catalepsy model. A caffeine solution was prepared with water for injection purposes to a concentration of 30 mg/ml. The solution was administered intraperitoneally in a volume of 1 ml/kg (30 mg/kg) 30 minutes before the beginning of testing and after CGS-21680 pre-treatment (1 hour prior to testing).
The catalepsy bar after CGS-21680 administration was measured (CAT) as follows: The rat was placed with its forepaws on a log of wood. […] If the animal descended faster than 1 second, the trial was regarded as invalid. If more than 20 trials were rated as invalid, the values of all uncompleted trials were noted as 0. The animal was tested until five trials had been completed and the time for each trial was noted. Only the values of the last three trials were used for the analysis. The following parameters were calculated: maximum time to descend (s) and median time to descend (s).
Behavioural observation (BO) included the measurement of the body tone, inclined plane and grip strength.
The rat is taken in the hand of the observer and the animal's body tone is rated as normal, soft or hard. The rating is performed immediately after taking the animal from its home cage before performance of catalepsy testing. The following parameters were calculated: mean occurrence of hard body tone and mean occurrence of soft body tone.
The rat is horizontally placed to an inclined plane for a maximum time of 30 seconds. Time to reach bottom or top is measured. […] The test is performed after catalepsy testing. Time to leave the inclined plane(s) was measured.
The rat is put on a grip and the observer pulls the animal back on his tail. The strength (fore paws and hind paws) by which it holds on the grid is scored as grasping and pulling, grasping without pulling or no grasping. The test is performed after the inclined plane test. The following parameters were calculated: mean score of fore paw grip strength and mean score of hind paw grip strength.
(§3) All statistical tests were performed two tailed with a value of p<0.05 considered as significant.
(§4) To assess the effects of CGS-21680 and Reserpine pre-treatment compared to vehicle treated controls statistical comparisons between the test groups were performed using a U test statistic.
To assess the effects of test compounds on CGS-21680 and Reserpine pre-treated animals correlation analyses including animals from test groups and the respective test compound-treated groups were performed. […]

Adenosine A2A = Adenosine A2A (Homo sapiens, UniProt P29274); test: Functional assay (luciferase reporter), inhibition of A2A adenosine receptor; type: cell-based; parameters: expressed in transfected cells; host or cells: CHO-DUKX-CRE-A2A-19 (CHO-DUKX, vector pCineo); details: for IC50: CHO-DUKX-CRE-A2A-19 cells, 60 nM NECA, read-out: A2A AR IC50; for A2A AR Imax: Imax in % of the corresponding antagonist; for Ki: Ki=IC50/(1+agonist concentration/EC50), read-out: A2A AR Ki
Adenosine A2A, sequence (P29274 whole entry): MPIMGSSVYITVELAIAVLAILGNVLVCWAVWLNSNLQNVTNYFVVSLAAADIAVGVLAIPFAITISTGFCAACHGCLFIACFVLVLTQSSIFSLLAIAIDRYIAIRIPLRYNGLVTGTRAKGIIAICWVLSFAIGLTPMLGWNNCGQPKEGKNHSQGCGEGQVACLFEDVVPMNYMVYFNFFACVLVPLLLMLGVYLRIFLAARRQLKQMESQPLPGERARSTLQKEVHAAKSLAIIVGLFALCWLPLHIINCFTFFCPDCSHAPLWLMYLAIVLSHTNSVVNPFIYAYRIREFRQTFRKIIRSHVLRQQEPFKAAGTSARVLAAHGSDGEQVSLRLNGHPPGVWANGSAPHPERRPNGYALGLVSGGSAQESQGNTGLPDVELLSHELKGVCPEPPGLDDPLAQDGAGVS

Adenosine A1 = target: T2, Adenosine A1 (Homo sapiens, UniProt P30542); test: Functional assay (luciferase reporter), inhibition of A1 adenosine receptor; type: cell-based; parameters: expressed in transfected cells; host or cells: CHO-DUKX-SRE-Luci-A1-44 (CHO-DUKX, vector pCineo); details: for A1 AR Imax: Imax in % of the corresponding antagonist (CPX)
T2 sequence (P30542 1-326): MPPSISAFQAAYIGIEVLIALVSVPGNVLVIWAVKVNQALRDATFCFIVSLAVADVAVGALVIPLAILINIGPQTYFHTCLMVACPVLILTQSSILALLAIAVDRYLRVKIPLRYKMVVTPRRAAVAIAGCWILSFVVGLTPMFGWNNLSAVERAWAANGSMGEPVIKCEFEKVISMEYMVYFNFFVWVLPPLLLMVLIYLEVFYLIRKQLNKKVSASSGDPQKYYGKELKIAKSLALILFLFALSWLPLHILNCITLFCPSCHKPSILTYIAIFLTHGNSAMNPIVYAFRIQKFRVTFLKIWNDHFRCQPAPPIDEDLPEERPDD

[3] = system: Reserpine induced catalepsy; test: Acute Reserpine induced catalepsy test; type: in vivo, rat; details: vs only Reserpine-treated animals
Method: as §1, §2
Apomorphine was used as a reference compound in the Reserpine induced catalepsy model. Apomorphine injection solution was diluted with purified water to a concentration of 0.3 mg/ml. The solution was administered subcutaneously (s.c.) in a volume of 1 ml/kg (0.3 mg/kg) 20 minutes before the begin of testing after Reserpine pre-treatment (25 hours prior to testing).
The catalepsy bar after Reserpine administration was measured (CAT) as follows: The rat was placed with its forepaws on a log of wood. […] The animal was tested for three trials and the time for each trial was noted. The following parameters were calculated: maximum time to descend (s) and median time to descend (s). […]
as §3, §4
To assess the effects of test compounds on CGS-21680 and Reserpine pre-treated animals correlation analyses including animals from test groups and the respective test compound-treated groups were performed.
Additionally, parametric and non-parametric comparisons for the median catalepsy measure were performed to assess the reliability of the method. In case of parametric testing a GLM analyses was performed including animals from a control group (only vehicle treated animals) and the respective test compound-treated groups with dose as a categorical factor. In case of a significant result, a Dunnett's post hoc test was performed between the according test compound groups and a control group as reference group. In case of non-parametric testing a Kruskal-Wallis H-test was performed including animals from a control group and the respective test compound groups. In case of a significant result single U-test comparisons were performed between a control group and the groups treated with different doses of the test compound.

[4] = Ki (+100 mM NaCl) rA2A rat striatum [3H] MSX-2 (n = 3), +100 mM NaCl
[5] = Ki rA2A rat striatum [3H] MSX-2 (n = 3), without NaCl
[6] = CHO-DUKX-SRE-Luci-A1-44 cells, 3.5 μM ADAC
[7] = Ki=IC50/(1+agonist concentration/EC50)

T1 sequence (P30543 whole entry): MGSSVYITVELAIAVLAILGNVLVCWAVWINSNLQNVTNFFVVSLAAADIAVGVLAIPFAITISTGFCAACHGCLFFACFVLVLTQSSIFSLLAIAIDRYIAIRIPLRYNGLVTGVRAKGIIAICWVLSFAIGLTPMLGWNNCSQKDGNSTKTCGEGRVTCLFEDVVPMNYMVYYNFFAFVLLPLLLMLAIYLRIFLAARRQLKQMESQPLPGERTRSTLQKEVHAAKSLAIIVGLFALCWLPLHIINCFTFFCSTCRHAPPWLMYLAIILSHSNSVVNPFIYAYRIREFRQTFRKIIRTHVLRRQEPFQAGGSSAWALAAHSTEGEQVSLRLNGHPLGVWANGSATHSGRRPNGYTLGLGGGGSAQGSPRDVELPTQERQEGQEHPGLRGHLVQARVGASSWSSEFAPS

Row | Ki [1, 4] [nM] | Ki [1, 5] [nM] | Sodium Chloride-Shift Ki (+NaCl)/Ki (−NaCl) [1] | IC50 (Adenosine A2A) [nM] | A2A AR Imax (Adenosine A2A) [%] | Ki (Adenosine A2A) [nM] | A1 AR Imax (Adenosine A1) | SMILES | further results
1 | 39.5 ± 13.1 | 46 ± 9 | 0.82 ± 0.13 | – | – | – | – | C#CCn1c(=O)c2c(nc(C#Cc3cccc(Cl)c3)n2C)n(C)c1=O [drawing 616] | –
2 | – | – | – | – | – | – | – | Cn1c(=O)c2c(ncn2C)n(C)c1=O [caffeine, 1,3,7-trimethylxanthine, reference compound] | hard body tone after CGS-21680 treatment [2]: increased; maximum catalepsy values after CGS-21680 treatment [2]: significantly decreased; median catalepsy values after CGS-21680 treatment [2]: significantly decreased; soft body tone after CGS-21680 treatment [2]: decreased
3 | 53.1 ± 5.9 | 43.4 ± 11.6 | 1.19 ± 0.16 | – | – | – | – | C#CCn1c(=O)c2c(nc(C#Cc3cccc(C)c3)n2C)n(C)c1=O [drawing 615] | –
4 | – | – | – | 300 | 117 | 26 | 92% | C#CCn1c(=O)c2c(nc(C#Cc3ccc(OC)c(OC)c3)n2C)n(CCCO)c1=O [drawing 622] | IC50 (Adenosine A1; CHO-DUKX-SRE-Luci-A1-44 cells, 3.5 μM ADAC, read-out: A1 AR IC50): 1800 nM; Ki (Adenosine A1; Ki=IC50/(1+agonist concentration/EC50), read-out: A1 AR Ki): 401 nM
5 | – | – | – | – | – | – | – | CN1CCc2cccc3c2[C@H]1Cc1ccc(O)c(O)c1-3 [apomorphine, Apomorphine, reference compound] | maximum catalepsy values after Reserpine treatment [3]: decreased; median catalepsy values after Reserpine treatment [3]: decreased
6 | – | – | – | 1900 | 90 | 178 | Nosignificantactivitydetected | C#CCn1c(=O)c2c(nc(C#Cc3cccc(OC)c3)n2C)n(C)c1=O [drawing 617] | A1 AR IC50 (Adenosine A1; [6]): Nosignificantactivitydetected; A1 AR Ki (Adenosine A1; [7]): Nosignificantactivitydetected
7 | – | – | – | 600 | 95 | 58 | Nosignificantactivitydetected | C#CCn1c(=O)c2c(nc(C#Cc3ccc(OC)c(OC)c3)n2C)n(C)c1=O [drawing 619] | A1 AR IC50 (Adenosine A1; [6]): Nosignificantactivitydetected; A1 AR Ki (Adenosine A1; [7]): Nosignificantactivitydetected
8 | 33.2 ± 9.9 | 30.9 ± 8 | 0.97 ± 0.03 | – | – | – | – | C#CCn1c(=O)c2c(nc(C#Cc3cccc(OC)c3)n2C)n(C)c1=O [drawing 614] | –
